From US6495491B1, “Substituted cyanophenyl uracils” (Bayer Aktiengesellschaft, priority 1995, dated 2002)

How the values were obtained:
Type in all cases: in vivo
[1] = test system: Chenopodium; assay: Pre-emergence test, Chenopodium; details: application rates between 8 and 125 g/ha, after three weeks
Description: (§1) Solvent: 5 parts by weight of acetone
(§2) Emulsifier: 1 part by weight of alkylaryl polyglycol ether
(§3) To produce a suitable preparation of active compound, 1 part by weight of active compound is mixed with the stated amount of solvent, the stated amount of emulsifier is added and the concentrate is diluted with water to the desired concentration.
(§4) Seeds of the test plants are sown in normal soil. After 24 hours, the soil is watered or sprayed with the preparation of the active compound. It is advantageous to keep the amount of water per unit area constant. The concentration of the active compound in the preparation is immaterial, only the amount of active compound applied per unit area matters.
(§5) After three weeks, the degree of damage to the plants is rated in % damage by comparison with the development of the untreated control.
(§6) 0%=no effect (like untreated control)

[2] = test system: Abutilon; assay: Pre-emergence test, Abutilon; details: application rates between 8 and 125 g/ha, after three weeks
Description: as §1, §2, §3, §4, §5, §6

[3] = test system: Matricaria; assay: Post-emergence test, Matricaria; details: application rates between 30 and 500 g/ha, after three weeks
Description: as §1, §2, §3
(§7) Test plants which have a height of 5-15 cm are sprayed with the preparation of the active compound in such a way as to apply the particular amounts of active compound desired per unit area. The concentration of the spray liquor is chosen so that the particular desired amounts of active compound are applied in 2000 l of water/ha.
as §5, §6

[4] = test system: wheat; assay: Pre-emergence test, crop tolerance wheat; details: application rates between 8 and 125 g/ha, after three weeks
Description: as §1, §2, §3, §4, §5, §6

[5] = test system: Matricaria; assay: Pre-emergence test, Matricaria; details: application rates between 8 and 125 g/ha, after three weeks
Description: as §1, §2, §3, §4, §5, §6

[6] = test system: Chenopodium; assay: Post-emergence test, Chenopodium; details: application rates between 30 and 500 g/ha, after three weeks
Description: as §1, §2, §3, §7, §5, §6

[7] = test system: Abutilon; assay: Post-emergence test, Abutilon; details: application rates between 30 and 500 g/ha, after three weeks
Description: as §1, §2, §3, §7, §5, §6

Compound: COc1cc(-n2c(=O)cc(C(F)(F)F)n(C)c2=O)c(F)cc1C#N [Example 2, 1-(4-cyano-2-fluoro-5-methoxy-phenyl)-3,6-dihydro-2,6-dioxo-3-methyl-4-trifluoromethyl-1(2H)-pyrimidine]
- degree of damage to the plants, % damage [1]: 100 %/o
- degree of damage to the plants, % damage [2]: 100%
- degree of damage to the plants, % damage [3]: 100%
- degree of damage to the plants, % damage (tolerance by crops) [4]: 0%
- degree of damage to the plants, % damage [5]: 100 %/o
- degree of damage to the plants, % damage [6]: 100%
- degree of damage to the plants, % damage [7]: 100%
